Test results reported in PubChem BioAssay (NCI).
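Where inhibition never reached the appropriate level, the endpoint shown equals the highest concentration tested. Otherwise, values were interpolated linearly from a five-concentration, 48-hour dose response in 96-well plates. TGI is the concentration that stops growth completely.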

What follows are compounds tested on MALME-3M melanoma (assay: growth of human tumour cells (NCI), 48 h).

`C=C(CCC/C(C)=C/C=C/[C@]1(C)CCCc2ccoc21)CC(=O)O` and `O=C1C2CC=CCC2C(=O)N1n1c(Cc2ccc(Cl)cc2)n[nH]c1=O` (stereo unspecified) cannot be ordered by TGI: over 100 µM for the first, over 100 µM for the second.

Compound `N#Cc1c(-c2ccc(Cl)cc2)c2c([nH]c1=O)-c1ccccc1SC2` has a TGI of over 100 µM.

The compounds below were run on ACHN renal (assay: growth of human tumour cells (NCI), 48 h).

Compared with `C=C1C(=O)C[C@H]2C(=C)C(=O)O[C@@H]2C2C1CC[C@@]2(C)O` (stereo partly specified), `C=C(CCC/C(C)=C/C=C/[C@]1(C)CCCc2ccoc21)CC(=O)O` is higher in TGI: 25 µM for the first, over 100 µM for the second.

First: O=C(NC(Cc1c[nH]c2ccccc12)C(=O)Nc1ccc(Br)cc1)OCc1ccccc1 (stereo unspecified)
Second: COC(=O)C1=C(C)NC2=C(C(=O)c3ccccc32)C1c1cn(-c2ccccc2)nc1-c1ccccc1 (stereo unspecified)
The TGI of the first is lower: 60.3 µM for the first, over 100 µM for the second.

`Cc1cc(C)n2nc3nc(N)c(C#N)c(-c4ccccc4)c3c2n1` and `N#Cc1nc2ccccc2nc1N1CCN(c2ccc([N+](=O)[O-])cc2)CC1` cannot be ordered by TGI: over 100 µM for the first, over 100 µM for the second.

First: CCCCCCCCCC1(N=[N+]=[N-])C(=O)c2ccccc2N(C)C1=O (stereo unspecified)
Second: CCCn1c2ccccc2c2ccc3c(c21)C(=O)C=CC3=O
The TGI of the first is higher: over 100 µM for the first, 3.59 µM for the second.

`CN(Cc1cnc2nc(N)nc(N)c2n1)c1ccc(C(=O)NC(CCC(=O)NCCC(P(=O)(O)O)P(=O)(O)O)C(=O)O)cc1` (stereo unspecified) and `CN1CCN(C(=O)CCNC(=O)Cc2ccc(C(=O)c3ccccc3)cc2)CC1` cannot be ordered by TGI: over 100 µM for the first, over 100 µM for the second.

`C[N+](CCCl)(CCCl)Cc1cccc2cccc([N+](=O)[O-])c12` and `Cc1c([N+](=O)[O-])ccc2c(NCCCN(C)C)ccnc12` cannot be ordered by TGI: over 100 µM for the first, over 100 µM for the second.

`O=C1NC(=O)C(c2c[nH]c3ccccc23)=C1c1cnc[nH]1` and `O=c1cc(N2CCOCC2)[nH]c(=O)n1-c1ccc(F)cc1` cannot be ordered by TGI: over 100 µM for the first, over 100 µM for the second.

`CC(=O)O[C@H]1C[C@H]2[C@@H](OC(C)=O)/C=C3\C[C@](C)(C(=O)[C@H](O)C(=C1C)C2(C)C)[C@@H](O)C[C@@H]3OC(=O)[C@H](O)[C@H](c1ccccc1)N(C)C` and `COCC1OC(Sc2ccccc2)C(O)C(OC)C1OC` (stereo unspecified) cannot be ordered by TGI: over 100 µM for the first, over 100 µM for the second.

`Nc1ncnc2c1ccn2C/C=C\CO` and `N=C1/C(=C/c2ccc(F)cc2)C(=O)N=C2SC=NN12` cannot be ordered by TGI: over 100 µM for the first, over 100 µM for the second.

First: COC(=O)CC(C#N)(OP1(=O)OC(c2ccccc2)C(C)N1C)c1ccccc1 (stereo unspecified)
Second: O=C(O)CC1NC(/C(=C/c2ccccc2)NC(=O)c2ccccc2)OC1=O (stereo unspecified)
The TGI of the first is lower: 59.8 µM for the first, over 100 µM for the second.

First: CC(=O)c1cccc(NC(=O)C(=O)NNc2n[nH]c(=S)n2N)c1
Second: O=C1C2CC=CCC2C(=O)N1n1c(Cc2ccc(Cl)cc2)n[nH]c1=O (stereo unspecified)
The TGI of the first is lower: 19.7 µM for the first, over 100 µM for the second.

The compounds below were run on TK-10 renal (assay: growth of human tumour cells (NCI), 48 h).

Going from `C=C1C(=O)C[C@H]2C(=C)C(=O)O[C@@H]2C2C1CC[C@@]2(C)O` (stereo partly specified) to `C=C(CCC/C(C)=C/C=C/[C@]1(C)CCCc2ccoc21)CC(=O)O`, the TGI rises from 41.4 µM to over 100 µM.

Compared with `O=C(NC(Cc1c[nH]c2ccccc12)C(=O)Nc1ccc(Br)cc1)OCc1ccccc1` (stereo unspecified), `COC(=O)C1=C(C)NC2=C(C(=O)c3ccccc32)C1c1cn(-c2ccccc2)nc1-c1ccccc1` (stereo unspecified) is higher in TGI: 52.8 µM for the first, over 100 µM for the second.

Going from `Cc1cc(C)n2nc3nc(N)c(C#N)c(-c4ccccc4)c3c2n1` to `N#Cc1c(-c2ccc(Cl)cc2)c2c([nH]c1=O)-c1ccccc1SC2`, the TGI falls from over 100 µM to 52.9 µM.

Going from `CCCCCCCCCC1(N=[N+]=[N-])C(=O)c2ccccc2N(C)C1=O` (stereo unspecified) to `CCCn1c2ccccc2c2ccc3c(c21)C(=O)C=CC3=O`, the TGI falls from over 100 µM to 3.76 µM.

`CN(Cc1cnc2nc(N)nc(N)c2n1)c1ccc(C(=O)NC(CCC(=O)NCCC(P(=O)(O)O)P(=O)(O)O)C(=O)O)cc1` (stereo unspecified) and `CN1CCN(C(=O)CCNC(=O)Cc2ccc(C(=O)c3ccccc3)cc2)CC1` cannot be ordered by TGI: over 100 µM for the first, over 100 µM for the second.

Going from `C[N+](CCCl)(CCCl)Cc1cccc2cccc([N+](=O)[O-])c12` to `Cc1c([N+](=O)[O-])ccc2c(NCCCN(C)C)ccnc12`, the TGI falls from over 100 µM to 80.6 µM.

`O=C1NC(=O)C(c2c[nH]c3ccccc23)=C1c1cnc[nH]1` and `N#Cc1nc2ccccc2nc1N1CCN(c2ccc([N+](=O)[O-])cc2)CC1` cannot be ordered by TGI: over 100 µM for the first, over 100 µM for the second.

`CC(=O)O[C@H]1C[C@H]2[C@@H](OC(C)=O)/C=C3\C[C@](C)(C(=O)[C@H](O)C(=C1C)C2(C)C)[C@@H](O)C[C@@H]3OC(=O)[C@H](O)[C@H](c1ccccc1)N(C)C` and `COCC1OC(Sc2ccccc2)C(O)C(OC)C1OC` (stereo unspecified) cannot be ordered by TGI: over 100 µM for the first, over 100 µM for the second.

`Nc1ncnc2c1ccn2C/C=C\CO` and `N=C1/C(=C/c2ccc(F)cc2)C(=O)N=C2SC=NN12` cannot be ordered by TGI: over 100 µM for the first, over 100 µM for the second.

`COC(=O)CC(C#N)(OP1(=O)OC(c2ccccc2)C(C)N1C)c1ccccc1` (stereo unspecified) and `O=C(O)CC1NC(/C(=C/c2ccccc2)NC(=O)c2ccccc2)OC1=O` (stereo unspecified) cannot be ordered by TGI: over 100 µM for the first, over 100 µM for the second.

Compared with `CC(=O)c1cccc(NC(=O)C(=O)NNc2n[nH]c(=S)n2N)c1`, `O=C1C2CC=CCC2C(=O)N1n1c(Cc2ccc(Cl)cc2)n[nH]c1=O` (stereo unspecified) is higher in TGI: 69.9 µM for the first, over 100 µM for the second.

`O=c1cc(N2CCOCC2)[nH]c(=O)n1-c1ccc(F)cc1` gave a TGI of over 100 µM.

Each compound was assayed on LOX IMVI melanoma (assay: growth of human tumour cells (NCI), 48 h).

Compared with `C=C1C(=O)C[C@H]2C(=C)C(=O)O[C@@H]2C2C1CC[C@@]2(C)O` (stereo partly specified), `CCCCCCCCCC1(N=[N+]=[N-])C(=O)c2ccccc2N(C)C1=O` (stereo unspecified) is 2-fold lower in TGI: 68.8 µM for the first, 34.3 µM for the second.

Going from `O=C(NC(Cc1c[nH]c2ccccc12)C(=O)Nc1ccc(Br)cc1)OCc1ccccc1` (stereo unspecified) to `COC(=O)C1=C(C)NC2=C(C(=O)c3ccccc32)C1c1cn(-c2ccccc2)nc1-c1ccccc1` (stereo unspecified), the TGI rises from 22.7 µM to over 100 µM.

`Cc1cc(C)n2nc3nc(N)c(C#N)c(-c4ccccc4)c3c2n1` and `O=C1NC(=O)C(c2c[nH]c3ccccc23)=C1c1cnc[nH]1` cannot be ordered by TGI: over 100 µM for the first, over 100 µM for the second.

`CN(Cc1cnc2nc(N)nc(N)c2n1)c1ccc(C(=O)NC(CCC(=O)NCCC(P(=O)(O)O)P(=O)(O)O)C(=O)O)cc1` (stereo unspecified) and `C[N+](CCCl)(CCCl)Cc1cccc2cccc([N+](=O)[O-])c12` cannot be ordered by TGI: over 100 µM for the first, over 100 µM for the second.
